We go through 18 compounds from patent US20230312587A1, “PTERIDINONE COMPOUNDS AND USES THEREOF” (Vertex Pharmaceutical Incorporated, priority 2018, published 2023).

Each structure is given as a SMILES string.

In assay [1] the test system is β-catenin-TCF-mediated reporter transcription activity in Colo 205 cells. In words: Colo 205 reporter assay (TCF/LEF luciferase). The format is cell-based. The conditions noted are these: Homo sapiens, COLO 205, 5 h, Colo 205 TCF/LEF luciferase reporter, five hours after addition of compound; read-out: TCF reporter Colo205 IC50. The method, boiled down:
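Luciferase signal from a TCF/LEF-driven reporter, stably integrated in Colo 205 colon cancer cells, was measured 5 h after compound addition.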
A general note: In a reporter assay the amount or activity of a reporter protein is the signal.

Assay [2] deals with Colo205-TCF/LEF-Luciferase (Luc) tumor. The experiment in a line: In vivo inhibition of TCF/LEF reporter activity in Colo-205 tumors. Set-up: concentration or dose not given beside the values. Conditions: TCF/LEF luciferase reporter in Colo-205 tumors, nu/nu mice, oral gavage. Here is the method:
Colo205-TCF/LEF-Luciferase (Luc) tumor cells were expanded in complete DMEM cell culture media [DMEM (Life Technologies, product #11960-051) media supplemented with 10% FBS (Hyclone, catalog #SH30071.03), antimycotic/antibiotic (Life Technologies, product #15240-062), and Glutamax (Life Technologies, product #35050-061)] with 1 ug/ml puromycin. After reaching confluency/high density, the loosely attached cells in media were transferred from the flask to 50 ml conical tubes. Tumor cells adhered to plastic were detached with trypsin and combined with cells in the conical tubes. The tumor cells were triturated, counted, and pelleted by centrifugation. Cell pellets were resuspended in 0.9% injectable saline (6×10^7 cells/ml). A 50 ul volume (3×10^6 cells) was injected subcutaneously in the flanks of 4-6 wk old female nu/nu mice (Charles River Laboratories). Approximately 13-16 days after implantation, tumors between 200-500 mm^3 were selected (based on caliper measurements and applying the formula […]) and randomized into groups of n=4. Mice were dosed by oral gavage with compound dissolved in 1:3:5:1 EtOH:DMSO:PEG-400:H2O at a rate of 10 ml/kg or 1:3:5:1 EtOH:DMSO:PEG-400:H2O alone (Vehicle Control). Tumors were collected from mice euthanized by CO2 inhalation and snap frozen in liquid nitrogen. Tumors were stored in a −80 degrees C. freezer until they were processed.
Tumors were thawed on ice and homogenized in cold Lysis Buffer (20 mM Tris-HCl (pH 7.5), 150 mM NaCl, 1 mM Na2EDTA, 1 mM EGTA, 1% Triton, 2.5 mM sodium pyrophosphate, 1 mM beta-glycerophosphate, 1 mM Na3VO4, 1 μg/ml leupeptin, 0.05% SDS) using a closed tissue grinder system (Fisher Scientific, Cat #02-542-09) on ice according to manufacturer's instructions. For 100 mg of tumor, 500 uL of Lysis Buffer was used. Tumor lysate was transferred to a pre-chilled microcentrifuge tube and centrifuged at 10,000×g for 10 minutes at 4 degrees C. Supernatant was transferred to a new pre-chilled microcentrifuge tube and was used immediately for analysis of protein content and luciferase activity.
Protein content of tumor lysate supernatant was determined using the BCA assay (Life Technologies Cat #23225). Luciferase activity of tumor lysate supernatant was determined by addition of Steady-Glo luminescence reagent (Promega, Cat #E2550) according to manufacturer's instructions and measurement on a Pherastar luminescence plate reader (BMG Labtech). Luciferase activity was normalized to protein content.

As a reminder, the IC50 is the concentration needed to halve the response being measured. For the compound `Cc1nc(NCc2cnn(Cc3ccc(F)cc3C#N)c2)nc2c1N(C)C(=O)[C@H](C)N2C` [Compound 63, (7S)-5-fluoro-2-((4-(((4,5,7,8-tetramethyl-6-oxo-5,6,7,8-tetrahydropteridin-2-yl)amino)methyl)-1H-pyrazol-1-yl)methyl)benzonitrile], the IC50 in assay [1] is under 300 nM. The “Percent Remaining Activity at 8 hrs after Dosing” value (from here on “Percent Remaining Activity”) in assay [2] stood at 9%.

In the case of `Cc1nc(NCc2cnn(Cc3ccc(OC(C)C)nc3)c2)nc2c1NC(=O)[C@H](C)N2C` [Compound 135, (7S)-2-(((1-((6-isopropoxypyridin-3-yl)methyl)-1H-pyrazol-4-yl)methyl)amino)-4,7,8-trimethyl-7,8-dihydropteridin-6(5H)-one], the IC50 in assay [1] was under 300 nM. The “Percent Remaining Activity” value in assay [2] was 43%.

As for `Cc1nc(NCc2cnn([C@H]3C[C@H]3c3ccc(F)cc3)c2)nc2c1NC(=O)[C@H](C)N2C` [Compound 155, (7S)-2-(((1-((1S,2S)-2-(4-fluorophenyl)cyclopropyl)-1H-pyrazol-4-yl)methyl)amino)-4,7,8-trimethyl-7,8-dihydropteridin-6(5H)-one], the IC50 in assay [1] is under 300 nM. The “Percent Remaining Activity” value in assay [2] is listed as 17%.

As for `Cc1nc(NCc2cnn(Cc3ccc(C#N)nc3)c2)nc2c1NC(=O)[C@H](C(C)C)N2C` [Compound 431, (7S)-5-((4-(((7-isopropyl-4,8-dimethyl-6-oxo-5,6,7,8-tetrahydropteridin-2-yl)amino)methyl)-1H-pyrazol-1-yl)methyl)picolinonitrile], in assay [1], the IC50 was under 300 nM. Also, the “Percent Remaining Activity” value in assay [2] worked out at 29%.

As for `Cc1nc(NCc2cnn(Cc3ccc(Cl)nc3)c2)nc2c1NC(=O)[C@H](C1CC1)N2C` [Compound 434, (7S)-2-(((1-((6-chloropyridin-3-yl)methyl)-1H-pyrazol-4-yl)methyl)amino)-7-cyclopropyl-4,8-dimethyl-7,8-dihydropteridin-6(5H)-one], the IC50 in assay [1] was under 300 nM. In addition, the “Percent Remaining Activity” value in assay [2] stood at 26%.

With `Cc1nc(NCc2cnn(Cc3ccc(C(F)(F)F)nc3)c2)nc2c1NC(=O)[C@H](C(C)(C)C)N2C` [Compound 436, (7S)-7-(tert-butyl)-4,8-dimethyl-2-(((1-((6-(trifluoromethyl)pyridin-3-yl)methyl)-1H-pyrazol-4-yl)methyl)amino)-7,8-dihydropteridin-6(5H)-one], the half-maximal inhibitory concentration (IC50) in assay [1] is under 300 nM. For the same compound, the “Percent Remaining Activity” value in assay [2] turned out to be 16%.

In the case of `Cc1nc(NCc2cnn(Cc3ccc(F)nc3)c2)nc2c1NC(=O)[C@H](C(C)(C)C)N2C` [Compound 437, (7S)-7-(tert-butyl)-2-(((1-((6-fluoropyridin-3-yl)methyl)-1H-pyrazol-4-yl)methyl)amino)-4,8-dimethyl-7,8-dihydropteridin-6(5H)-one], the IC50 in assay [1] is under 300 nM. For the same compound, in assay [2], the “Percent Remaining Activity” value is given as 20%.

Regarding `Cc1nc(NCc2cnn(Cc3ccc(C(F)(F)F)nc3)c2)nc2c1N(C)C(=O)[C@H](CCO)N2C` [Compound 443, (7S)-7-(2-hydroxyethyl)-4,5,8-trimethyl-2-(((1-((6-(trifluoromethyl)pyridin-3-yl)methyl)-1H-pyrazol-4-yl)methyl)amino)-7,8-dihydropteridin-6(5H)-one], the half-inhibitory concentration (IC50) in assay [1] was in the range of 300 to 1000 nM. Also, the “Percent Remaining Activity” value in assay [2] stood at 100%.

`Cc1nc(NCc2cnn(Cc3ccc(Cl)nc3)c2)nc2c1N(C)C(=O)[C@H](CCO)N2C` [Compound 445, (7S)-2-(((1-((6-chloropyridin-3-yl)methyl)-1H-pyrazol-4-yl)methyl)amino)-7-(2-hydroxyethyl)-4,5,8-trimethyl-7,8-dihydropteridin-6(5H)-one]: the IC50 in assay [1] lay in the range of 300 to 1000 nM. The “Percent Remaining Activity” value in assay [2] was found to be 98%.

`Cc1nc(NCc2cnn(Cc3ccnc(C(F)(F)F)c3)c2)nc2c1NC(=O)[C@H](C(C)C)N2C` [Compound 447, (S)-7-isopropyl-4,8-dimethyl-2-(((1-((2-(trifluoromethyl)pyridin-4-yl)methyl)-1H-pyrazol-4-yl)methyl)amino)-7,8-dihydropteridin-6(5H)-one]: the half-inhibitory concentration (IC50) in assay [1] is under 300 nM. For the same compound, the “Percent Remaining Activity” value in assay [2] was 76%.

Take `Cc1nc(NCc2cnn(Cc3cc(F)c(F)c(F)c3)c2)nc2c1NC(=O)[C@H](C(C)C)N2C` [Compound 449, (S)-7-isopropyl-4,8-dimethyl-2-(((1-(3,4,5-trifluorobenzyl)-1H-pyrazol-4-yl)methyl)amino)-7,8-dihydropteridin-6(5H)-one]: the IC50 in assay [1] was under 300 nM. For the same compound, the “Percent Remaining Activity” value in assay [2] stood at 22%.

For `COc1c(F)cc(Cn2cc(CNc3nc(C)c4c(n3)N(C)[C@@H](C(C)C)C(=O)N4)cn2)cc1F` [Compound 450, (S)-2-(((1-(3,5-difluoro-4-methoxybenzyl)-1H-pyrazol-4-yl)methyl)amino)-7-isopropyl-4,8-dimethyl-7,8-dihydropteridin-6(5H)-one], the IC50 in assay [1] was under 300 nM. In addition, the “Percent Remaining Activity” value in assay [2] is reported as 32%.

Regarding `Cc1nc(NCc2cnn(Cc3ccnc(C(F)(F)F)c3)c2)nc2c1NC(=O)[C@H](C1CC1)N2C` [Compound 455, (S)-7-cyclopropyl-4,8-dimethyl-2-(((1-((2-(trifluoromethyl)pyridin-4-yl)methyl)-1H-pyrazol-4-yl)methyl)amino)-7,8-dihydropteridin-6(5H)-one], the half-inhibitory concentration (IC50) in assay [1] is under 300 nM. Besides, in assay [2], the “Percent Remaining Activity” value is reported as 63%.

Take `Cc1nc(NCc2cnn(Cc3ccnc(N(C)C)c3)c2)nc2c1NC(=O)[C@H](C1CC1)N2C` [Compound 466, (S)-7-cyclopropyl-2-(((1-((2-(dimethylamino)pyridin-4-yl)methyl)-1H-pyrazol-4-yl)methyl)amino)-4,8-dimethyl-7,8-dihydropteridin-6(5H)-one]: the IC50 in assay [1] is under 300 nM. The “Percent Remaining Activity” value in assay [2] is on record as 101%.

Regarding `Cc1nc(NCc2cnn(Cc3cnc(Cl)s3)c2)nc2c1NC(=O)[C@H](C(C)C)N2C` [Compound 491, (S)-2-(((1-((2-chlorothiazol-5-yl)methyl)-1H-pyrazol-4-yl)methyl)amino)-7-isopropyl-4,8-dimethyl-7,8-dihydropteridin-6(5H)-one], in assay [1], the IC50 is under 300 nM. The “Percent Remaining Activity” value in assay [2] is given as 41%.

As for `Cc1nc(NC2CN(C(=O)c3cc(F)c(F)c(F)c3)C2)nc2c1NC(=O)[C@H](C(C)C)N2C` [Compound 496, (S)-7-isopropyl-4,8-dimethyl-2-((1-(3,4,5-trifluorobenzoyl)azetidin-3-yl)amino)-7,8-dihydropteridin-6(5H)-one], in assay [1], the half-maximal inhibitory concentration (IC50) is under 300 nM. In assay [2], the “Percent Remaining Activity” value was found to be 17%.

Take `CO[C@H](C)[C@H]1C(=O)Nc2c(C)nc(NCc3cnn(Cc4ccc(Cl)nc4)c3)nc2N1C` [Compound 499, (S)-2-(((1-((6-chloropyridin-3-yl)methyl)-1H-pyrazol-4-yl)methyl)amino)-7-((R)-1-methoxyethyl)-4,8-dimethyl-7,8-dihydropteridin-6(5H)-one]: the IC50 in assay [1] was under 300 nM. Further, the “Percent Remaining Activity” value in assay [2] amounted to 31%.

`Cc1nc(NCc2cnn(Cc3ccc(C(F)F)nc3)c2)nc2c1NC(=O)[C@H](C(C)C)N2C` [Compound 500, (S)-2-(((1-((6-(difluoromethyl)pyridin-3-yl)methyl)-1H-pyrazol-4-yl)methyl)amino)-7-isopropyl-4,8-dimethyl-7,8-dihydropteridin-6(5H)-one]: the IC50 in assay [1] was under 300 nM. The “Percent Remaining Activity” value in assay [2] is on record as 43%.
